Key:
[1] = Vapor pressure of purified cedrol by static method and gas flow method; assay type: physicochemical; details: ambient temperature (unheated)
Description: The vapor pressure of purified cedrol (molecular weight 222 g·mol^−1) used in the following examples was determined by a static method and a gas flow method (temperature: 22, 50, and 75° C. for solids; 100 and 125° C. for liquids).
In the static method, samples were taken from hermetically sealed containers, a constant temperature was established, and the equilibrium vapor pressure at that temperature was directly measured using a pressure gauge (OECD Test Guidelines 104: Static Measurement of Vapor Pressure).
In the gas flow method, carrier gas (nitrogen gas) was allowed to flow so as to come into contact with a solid or liquid sample at a certain temperature to saturate the sample vapor, and the vapor density (vaporization quantity/volume) was measured so as to determine the vapor pressure hypothetically in accordance with ideal gas principles. The vapor density herein referred to is calculated from the sample vaporization rate (rate of loss) determined using an electrical balance, and the carrier gas flow rate determined using a flow rate gauge. However, since the sample vapor saturation is usually incomplete, the vapor density level is dependent on flow rate, so the vapor density was measured at varying flow rates for extrapolation to a zero flow rate to determine the saturated vapor density. […]

[2] = tested on: women in their twenties complaining of fatigue (sympathetic overactivity); test: Inhalation of cedrol for 30 seconds with ECG, blood pressure and respiration monitoring (Example 1); assay type: in vivo, human; details: after vs before inhalation, 10 wt % in dipropylene glycol, significance 5%
Description: The subjects were ten women in their twenties complaining of fatigue (sympathetic overactivity), who were asked to inhale, for 30 seconds, cedrol dissolved in dipropylene glycol (10 wt % concentration), while ECG at rest (chest V5 lead), blood pressure (tonometry), and respiration (pulmonary volume instantaneously measured by respiratory rate sensor) were monitored. The changes in parameters before and after measurement were compared. Frequency analysis of R—R interval fluctuations was performed for low frequency components integrating amplitudes 0.02 to 0.12 Hz (sum of low frequency: Lsum) and high frequency components integrating amplitudes 0.12 to 2.00 Hz (sum of high frequency: Hsum) using the rapid Fourier transform. As used here, the Hsum is an indicator of parasympathetic nervous activity, and the Lsum/Hsum is an indicator of sympathetic nervous activity.
The measurement results were statistically analyzed by Welch's t-test or Student's t-test based on the F test.

[3] = tested on: insomniac women in their twenties (parasympathetic predominance to excess); test: Inhalation of cedrol for 30 seconds with ECG, blood pressure and respiration monitoring (Example 2); assay type: in vivo, human; details: after vs before inhalation, insomniac subjects
Text: The subjects were ten insomniac women in their twenties (under considerable pressure to get to sleep, with parasympathetic predominance to excess), who were asked to inhale, for 30 seconds, cedrol dissolved in dipropylene glycol (10 wt % concentration), while ECG at rest (chest V5 lead), blood pressure (tonometry), and respiration (pulmonary volume instantaneously measured by respiratory rate sensor), and skin blood flow of forehead (measured by laser Doppler methods) were monitored. The changes in parameters before and after measurement were compared. Frequency analysis of R—R interval fluctuations and statistical analysis of the measurement results were done in the same manner as in Example 1.

[4] = tested on: women in their twenties suffering from poor sleep; test: Sleep monitoring with cedrol vaporized in the room from bedtime until waking (Example 3); assay type: in vivo, human; details: significance 5%
Description: The subjects were ten women in their twenties suffering from poor sleep. ECG (chest V5 lead), brain waves (C3, O1 in the international 10–20 method), respiration (impedance method: abdomen and chest), superficial electromyogram (bipolar lead of left and right mentalis muscles), and ocular movement (bipolar lead without horizontally linking left and right eye-sockets) were monitored from the time the subjects went to bed until they woke in a 40 m^2 room. The cedrol was administered by placing Petri dishes filled with cedrol on 95° C. hot plates so that approximately 100 mg was vaporized per hour (about 1 ppb/hr), from the time subjects went to bed until they woke. Measurements were taken for 7 days. No administration took place on the first two days, in order to allow subjects to become acclimated to the measuring instruments and environment (control). On the third day, administration was managed without anything placed on the hot plates (placebo). After 3 days, cedrol was administered on the 7th day.
The subjects were interviewed about their condition on waking using a questionnaire based on POMS (profile of mood states) to assess mood. The changes in the parameters measured during the administration of cedrol and placebo treatment were compared.
Awakening and sleep stages were determined in accordance with international standards for determining sleep stages (Sleep Brain Wave Atlas, pp. 3–9, Ishiyaku Shuppan KK, published September, 1971, the relevant portions thereof which describe sleep analysis and standards are incorporated herein by reference). Frequency analysis of R—R interval fluctuations and statistical analysis of the measurement results were done in the same manner as in Example 1.

[5] = tested on: insomniac women in their fifties; test: Sleep in a room with furnishings and bedding coated with cedrol, actigram assessment (Example 7); assay type: in vivo, human; details: furnishings and bedding coated with cedrol 1.5 μg/cm^2, 15th to 21st days, vs control week; p<0.01
Description: The subjects were twenty insomniac women in their fifties, while sleep was assessed from 3 hours before bed until wakening for 4 weeks in a room (sleeping room) at a temperature of 23° C. and a humidity of 50%. The first week served as a control. For the last 3 weeks, the test was conducted by replacing the curtains, wall paper, flooring, pillows, sheets, and bedding with those which had been coated with cedral (1.5 μg/cm^2).
The subjects ware actigrams for 4 continuous weeks on the opposite of their leading arm to allow assessment of the sleeping efficiency and intermittent awakening. Analyzed data for the cedrol coatings were from the 15th to 21st days following application.
Statistical analysis of the measurement results was the same as in Example 5.

[6] = within physiologically normal range, significance 5%
[7] = 7th day (cedrol) vs before administration and 3rd day (placebo treatment)
[8] = cedrol approximately 100 mg vaporized per hour vs placebo treatment

vapor pressure (vaporizability) [1]: can be vaporized at ambient temperature
SMILES: C[C@@H]1CC[C@H]2C(C)(C)[C@H]3C[C@@]12CC[C@@]3(C)O [cedrol]
ECG R-R interval [2]: meaningfully longer
Hsum (parasympathetic nervous activity indicator) [2]: meaningfully greater
Lsum/Hsum (sympathetic nervous activity indicator) [2]: meaningfully lower
diastolic blood pressure (DBP) [2]: meaningfully lower
respiratory rate (RR) [2]: meaningfully lower
systolic blood pressure (SBP) [2]: meaningfully lower
ECG R-R interval [3]: no meaningful change
Hsum [3]: tended to be lower
Lsum/Hsum [3]: tended to be higher
respiratory rate (RR) [3]: no meaningful difference
diastolic blood pressure (DBP) [3, 6]: meaningfully higher
systolic blood pressure (SBP) [3, 6]: meaningfully higher
POMS fatigue [4, 7]: meaningful (5%) improvement
POMS tension [4, 7]: meaningful (5%) improvement
Hsum during non-REM sleep ([4]; cedrol approximately 100 mg vaporized per hour (about 1 ppb/hr) vs placebo treatment): meaningfully increased
cumulative incidence of stages 3 and 4 of sleep [4, 8]: meaningfully greater
respiratory rate (RR) during non-REM sleep [4, 8]: meaningfully lower
intermittent awakening [5]: meaningfully fewer
sleeping efficiency [5]: meaningfully better

Reference: US7125911B2, “Autonomic nerve regulating agent” (Kao Corporation, priority 2000, dated 2006)
